Laboratory results: patent US11000033B2, “Ketone or oxime compound, and herbicide” (NISSAN CHEMICAL CORPORATION, priority 2014, dated 2021)

How the values were obtained:
Format in all cases: in vivo
Apera spica-venti = test: Test Example 5: herbicidal effect by foliage application, plastic box (symbol L); conditions: 320 g/ha, 3 weeks after application
Procedure, shortened: (§1)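 Emulsion formulation, diluted with water to the intended rate, was applied uniformly to leaves by small sprayer. Recipients were 14-day greenhouse-grown seedlings (25° C. to 30° C.). Assessment followed at 3 weeks.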

Chenopodium album = test: Test Example 5: herbicidal effect by foliage application, plastic box (symbol O); conditions: 320 g/ha, 3 weeks after application
Procedure, shortened: as §1

Stellaria media = test: Test Example 5: herbicidal effect by foliage application, plastic box (symbol P); conditions: 320 g/ha, 3 weeks after application
Procedure, shortened: as §1

rapeseed = test: Test Example 5: effect on crop by foliage application, plastic box (symbol g); conditions: 320 g/ha, 3 weeks after application
Procedure, shortened: (§2)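 Foliage-application test plants come from spot sowing in sterilized diluvial soil under a soil layer of about 1.5 cm, grown at 25° C. to 30° C. in a greenhouse.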

rice plant = test: Test Example 5: effect on crop by foliage application, plastic box (symbol b); conditions: 320 g/ha, 3 weeks after application
Procedure, shortened: as §2

[1] = test system: Echinochloa crus-galli var. crus-galli; test: Test Example 3: herbicidal effect by foliage application, Wagner pot (symbol H); conditions: application herbicide amount 320 g/ha
Procedure, shortened: (§3)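 In a shallow-flooded alluvial soil system held at 25–30 °C, plants including rice grew for 14 days and were then sprayed over the foliage with emulsion diluted to a fixed herbicide amount. Visual rating followed at 3 weeks.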

Scirpus juncoides = test: Test Example 2: herbicidal activity, application during weed generation in submerged conditions (symbol B); conditions: Table 23; application herbicide amount 320 g/ha; grade 0-5 by criteria of Test Example 1
Description: (§4) Herbicidal Activity Test by Application During Weed Generation in Submerged Conditions
(§5) After alluvial soil was placed into 1/10000 are of Wagner pot, water was poured and mixed to form a submerged condition having a water depth of 4 cm. Seeds of Echinochloa oryzacola Vasing., Scirpus juncoides, and Monochoria vaginalis were sowed in a mixed manner in the above pot and the pot was placed in the greenhouse of 25° C. to 30° C. to grow the plants. When Echinochloa oryzacola Vasing., Scirpus juncoides, and Monochoria vaginalis were grown to one leaf stage to two leaf stage, the emulsion agent of the compound of the present invention prepared in accordance with Formulation Example 2 was diluted with water so as to be a predetermined herbicide amount and the diluted emulsion agent was applied to the surface of the water. 3 weeks later from the herbicide application, the effect to each plant was investigated in accordance with the criteria of Test Example 1.

Monochoria vaginalis = test: Test Example 2: herbicidal activity, application during weed generation in submerged conditions (symbol C); conditions: Table 23; application herbicide amount 320 g/ha; grade 0-5 by criteria of Test Example 1
Description: as §4, §5

[2] = test system: Echinochloa crus-galli var. crus-galli; test: Test Example 5: herbicidal effect by foliage application, plastic box (symbol H); conditions: 320 g/ha, 3 weeks after application
Procedure, shortened: as §1

Galium spurium = test: Test Example 5: herbicidal effect by foliage application, plastic box (symbol Q); conditions: 320 g/ha, 3 weeks after application
Procedure, shortened: as §1

Cyperus difformis = test: Test Example 3: herbicidal effect by foliage application, Wagner pot (symbol E); conditions: application herbicide amount 320 g/ha
Procedure, shortened: as §3

Avena fatua = test: Test Example 5: herbicidal effect by foliage application, plastic box (symbol I); conditions: 320 g/ha, 3 weeks after application
Procedure, shortened: as §1

Digitaria ciliaris = test: Test Example 5: herbicidal effect by foliage application, plastic box (symbol F); conditions: 320 g/ha, 3 weeks after application
Procedure, shortened: as §1

Lolium multiflorum Lam. = test: Test Example 5: herbicidal effect by foliage application, plastic box (symbol K); conditions: 320 g/ha, 3 weeks after application
Procedure, shortened: as §1

corn = test: Test Example 5: effect on crop by foliage application, plastic box (symbol c); conditions: 320 g/ha, 3 weeks after application
Procedure, shortened: as §2

wheat = test: Test Example 5: effect on crop by foliage application, plastic box (symbol e); conditions: 320 g/ha, 3 weeks after application
Procedure, shortened: as §2

[3] = test system: Echinochloa oryzacola Vasing.; test: Test Example 2: herbicidal activity, application during weed generation in submerged conditions (symbol A); conditions: Table 23; application herbicide amount 320 g/ha; grade 0-5 by criteria of Test Example 1
Description: as §4, §5

Amaranthus retroflexus = test: Test Example 5: herbicidal effect by foliage application, plastic box (symbol N); conditions: 320 g/ha, 3 weeks after application
Procedure, shortened: as §1

Setaria viridis = test: Test Example 5: herbicidal effect by foliage application, plastic box (symbol G); conditions: 320 g/ha, 3 weeks after application
Procedure, shortened: as §1

Abutilon theophrasti = test: Test Example 5: herbicidal effect by foliage application, plastic box (symbol M); conditions: 320 g/ha, 3 weeks after application
Procedure, shortened: as §1

Veronica persica = test: Test Example 5: herbicidal effect by foliage application, plastic box (symbol R); conditions: 320 g/ha, 3 weeks after application
Procedure, shortened: as §1

soybean = test: Test Example 5: effect on crop by foliage application, plastic box (symbol d); conditions: 320 g/ha, 3 weeks after application
Procedure, shortened: as §2

beet = test: Test Example 5: effect on crop by foliage application, plastic box (symbol f); conditions: 320 g/ha, 3 weeks after application
Procedure, shortened: as §2

[4] = test system: directly sowed rice plant; test: Test Example 3: effect on crop by foliage application, Wagner pot (symbol b); conditions: application herbicide amount 320 g/ha
Procedure, shortened: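 Steps: fill a 1/10000-are Wagner pot with alluvial soil; add water and mix to submerge at 0.1–0.5 cm depth; sow rice plus Echinochloa crus-galli var. crus-galli, Leptochloa chinensis and Cyperus difformis; grow in a 25–30 °C greenhouse.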

Alopecurus myosuroides = test: Test Example 5: herbicidal effect by foliage application, plastic box (symbol J); conditions: 320 g/ha, 3 weeks after application
Procedure, shortened: as §1

Leptochloa chinensis = test: Test Example 3: herbicidal effect by foliage application, Wagner pot (symbol D); conditions: application herbicide amount 320 g/ha
Procedure, shortened: as §3

Structure (SMILES) | L: Apera spica-venti, herbicidal effect grade (Apera spica-venti) | O: Chenopodium album, herbicidal effect grade (Chenopodium album) | P: Stellaria media, herbicidal effect grade (Stellaria media) | g: rapeseed, effect on crop grade (rapeseed) | b: directly sowed rice plant, effect on crop grade (rice plant) | Herbicidal effect grade, B: Scirpus juncoides (Scirpus juncoides) | Herbicidal effect grade, C: Monochoria vaginalis (Monochoria vaginalis) | H: Echinochloa crus-galli var. crus-galli, herbicidal effect grade [2] | Q: Galium spurium, herbicidal effect grade (Galium spurium) | I: Avena fatua, herbicidal effect grade (Avena fatua) | F: Digitaria ciliaris, herbicidal effect grade (Digitaria ciliaris) | K: Lolium multiflorum Lam., herbicidal effect grade (Lolium multiflorum Lam.) | c: corn, effect on crop grade (corn) | e: wheat, effect on crop grade (wheat) | Herbicidal effect grade, A: Echinochloa oryzacola Vasing. [3] | N: Amaranthus retroflexus, herbicidal effect grade (Amaranthus retroflexus) | G: Setaria viridis, herbicidal effect grade (Setaria viridis) | M: Abutilon theophrasti, herbicidal effect grade (Abutilon theophrasti) | R: Veronica persica, herbicidal effect grade (Veronica persica) | d: soybean, effect on crop grade (soybean) | other results
CON=C(C)CC1CC(O)=C(c2c(C)cc(C#CC(C)(C)O)cc2C)C1=O (mixture of isomers) [6-036] | 3 (Herbicidal ratio of 40% or higher and lower than 70%) | 0 (Herbicidal ratio of 5% or lower (almost no effect)) | 1 (Herbicidal ratio of 5% or higher and lower than 20%) | 3 (Herbicidal ratio of 40% or higher and lower than 70%) | 4 (Herbicidal ratio of 70% or higher and lower than 90%) | 0 (Herbicidal ratio of 5% or lower (almost no effect)) | 0 (Herbicidal ratio of 5% or lower (almost no effect)) | 5 (Herbicidal ratio of 90% or more (almost completely withered)) | 0 (Herbicidal ratio of 5% or lower (almost no effect)) | 3 (Herbicidal ratio of 40% or higher and lower than 70%) | 4 (Herbicidal ratio of 70% or higher and lower than 90%) | 5 (Herbicidal ratio of 90% or more (almost completely withered)) | 4 (Herbicidal ratio of 70% or higher and lower than 90%) | 0 (Herbicidal ratio of 5% or lower (almost no effect)) | 3 (Herbicidal ratio of 40% or higher and lower than 70%) | 0 (Herbicidal ratio of 5% or lower (almost no effect)) | 4 (Herbicidal ratio of 70% or higher and lower than 90%) | 0 (Herbicidal ratio of 5% or lower (almost no effect)) | 3 (Herbicidal ratio of 40% or higher and lower than 70%) | 0 (Herbicidal ratio of 5% or lower (almost no effect)) | herbicidal effect on H (Echinochloa crus-galli var. crus-galli), grade 0-5 [1]: 4 (Herbicidal ratio of 70% or higher and lower than 90%); herbicidal effect on E, grade 0-5 (Cyperus difformis): 3 (Herbicidal ratio of 40% or higher and lower than 70%); f: beet, effect on crop grade (beet): 0 (Herbicidal ratio of 5% or lower (almost no effect)); effect on crop b (directly sowed rice plant), grade 0-5 [4]: 4 (Herbicidal ratio of 70% or higher and lower than 90%); J: Alopecurus myosuroides, herbicidal effect grade (Alopecurus myosuroides): 3 (Herbicidal ratio of 40% or higher and lower than 70%); herbicidal effect on D (Leptochloa chinensis), grade 0-5 (Leptochloa chinensis): 5 (Herbicidal ratio of 90% or more (almost completely withered))
COc1cc(Br)cc(C)c1C1=C(O)CC(C(C)C(C)=O)C1=O (stereo not shown) [7-031] | 5 (Herbicidal ratio of 90% or more (almost completely withered)) | 0 (Herbicidal ratio of 5% or lower (almost no effect)) | 0 (Herbicidal ratio of 5% or lower (almost no effect)) | 0 (Herbicidal ratio of 5% or lower (almost no effect)) | 4 (Herbicidal ratio of 70% or higher and lower than 90%) | 1 (Herbicidal ratio of 5% or higher and lower than 20%) | 2 (Herbicidal ratio of 20% or higher and lower than 40%) | 5 (Herbicidal ratio of 90% or more (almost completely withered)) | 0 (Herbicidal ratio of 5% or lower (almost no effect)) | 3 (Herbicidal ratio of 40% or higher and lower than 70%) | 4 (Herbicidal ratio of 70% or higher and lower than 90%) | 5 (Herbicidal ratio of 90% or more (almost completely withered)) | 1 (Herbicidal ratio of 5% or higher and lower than 20%) | 0 (Herbicidal ratio of 5% or lower (almost no effect)) | 0 (Herbicidal ratio of 5% or lower (almost no effect)) | 0 (Herbicidal ratio of 5% or lower (almost no effect)) | 5 (Herbicidal ratio of 90% or more (almost completely withered)) | 0 (Herbicidal ratio of 5% or lower (almost no effect)) | 0 (Herbicidal ratio of 5% or lower (almost no effect)) | 0 (Herbicidal ratio of 5% or lower (almost no effect)) | H (Echinochloa crus-galli var. crus-galli) herbicidal effect grade ([1]; Table 24): 4 (Herbicidal ratio of 70% or higher and lower than 90%); E herbicidal effect grade (Cyperus difformis; Table 24): 3 (Herbicidal ratio of 40% or higher and lower than 70%); f: beet, effect on crop grade (beet): 0 (Herbicidal ratio of 5% or lower (almost no effect)); b (directly sowed rice plant) effect on crop grade ([4]; Table 24): 5 (Herbicidal ratio of 90% or more (almost completely withered)); J: Alopecurus myosuroides, herbicidal effect grade (Alopecurus myosuroides): 3 (Herbicidal ratio of 40% or higher and lower than 70%); D (Leptochloa chinensis) herbicidal effect grade (Leptochloa chinensis; Table 24): 5 (Herbicidal ratio of 90% or more (almost completely withered))
